From patent US20060084688A1, “Aromatic sulfone hydroxamic acid metalloprotease inhibitor” (priority 1997, published 2006)
Like-named read-outs stand apart in the source and are kept apart here.

How the values were obtained:
[1] = tested on: human monocytic line U-937; assay type: cell-based
TNFrII = assay: Tumor necrosis factor assay: TNF Receptor II ELISA on supernatant of PMA-stimulated U-937 cells; conditions: Homo sapiens, U-937, read-out: TNFRII Release IC50 in micromolar
recombinant human MMP-13 = recombinant human MMP-13 (Homo sapiens, UniProt P45452); assay: biochemical; conditions: Inhibition Table B
recombinant human MMP-1 = target: T1, recombinant human MMP-1 (Homo sapiens, UniProt P03956); assay: biochemical; conditions: Inhibition Table B
T1 construct: made in house; host or cells: transfected HT-1080 cells
T1 sequence (P03956 100-469): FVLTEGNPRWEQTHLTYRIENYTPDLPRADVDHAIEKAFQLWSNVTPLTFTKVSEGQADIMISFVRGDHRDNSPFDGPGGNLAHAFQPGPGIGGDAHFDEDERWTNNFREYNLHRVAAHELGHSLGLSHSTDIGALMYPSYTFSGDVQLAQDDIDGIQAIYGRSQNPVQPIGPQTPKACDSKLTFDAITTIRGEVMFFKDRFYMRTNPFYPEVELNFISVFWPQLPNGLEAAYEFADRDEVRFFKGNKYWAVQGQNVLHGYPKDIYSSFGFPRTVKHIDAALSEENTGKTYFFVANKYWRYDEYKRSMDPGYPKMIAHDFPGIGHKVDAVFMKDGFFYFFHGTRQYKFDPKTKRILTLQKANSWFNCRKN

recombinant human MMP-2 = target: T2, recombinant human MMP-2 (Homo sapiens, UniProt P08253); assay: biochemical; conditions: Inhibition Table B
T2 sequence (P08253 110-660): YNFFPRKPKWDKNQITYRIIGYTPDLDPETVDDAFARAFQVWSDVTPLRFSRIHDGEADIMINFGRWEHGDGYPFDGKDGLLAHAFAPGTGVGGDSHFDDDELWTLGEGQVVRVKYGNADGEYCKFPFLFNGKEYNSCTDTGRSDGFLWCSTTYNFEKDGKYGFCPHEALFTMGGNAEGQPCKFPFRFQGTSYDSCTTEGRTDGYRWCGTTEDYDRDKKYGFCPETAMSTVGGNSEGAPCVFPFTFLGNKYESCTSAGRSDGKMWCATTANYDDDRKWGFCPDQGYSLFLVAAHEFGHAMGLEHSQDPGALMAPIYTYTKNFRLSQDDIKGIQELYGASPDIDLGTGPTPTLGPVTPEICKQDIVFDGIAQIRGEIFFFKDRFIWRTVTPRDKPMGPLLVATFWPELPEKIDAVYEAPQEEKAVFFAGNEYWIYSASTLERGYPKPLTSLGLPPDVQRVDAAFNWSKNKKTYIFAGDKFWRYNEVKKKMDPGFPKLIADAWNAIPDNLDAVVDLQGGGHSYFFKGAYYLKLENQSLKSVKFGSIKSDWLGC

Row | Compound | MTS Toxicity TD50 [1] [µM] | IC50 (TNFrII) [µM] | t1/2 (Rat Intraveneous, 20 mpk) [h] | also measured
1 | Cl.O=C(NO)C1(S(=O)(=O)c2ccc(Oc3ccccc3)cc2)CCNCC1 [Example 4, N-hydroxy-4-[(4-phenoxyphenyl)sulfonyl]-4-piperidinecarboxamide] | >100 | > 100 |  | 
2 | C#CCN1CCC(C(=O)NO)(S(=O)(=O)c2ccc(Oc3ccccc3)cc2)CC1.Cl [Example 6, N-hydroxy-4-[(4-phenoxyphenyl)sulfonyl]-1-(2-propynyl)-4-piperidinecarboxamide] | >100 | > 100 |  | 
3 | C#CCN1CCC(C(=O)NO)(S(=O)(=O)c2ccc(Sc3ccccc3)cc2)CC1.Cl [Example 9, N-hydroxy-4-([4-(phenylthio)phenyl]sulfonyl]-1-(2-propynyl)-4-piperidinecarboxamide] | >100 | > 100 |  | 
4 | C#CCN1CCC(C(=O)NO)(S(=O)(=O)c2ccc(Oc3ccc4c(c3)OCO4)cc2)CC1.Cl [Example 10, 4-[[4-(1,3-benzodioxol-5-yloxy)phenyl]sulfonyl]-N-hydroxy-1-(2-propynyl)-4-piperidinecarboxamide] | >100 | > 100 |  | 
5 | C#CCN1CCC(C(=O)NO)(S(=O)(=O)c2ccc(SC3CCCCC3)cc2)CC1.Cl [Example 13, 4-[[4-(cyclohexylthio)-phenyl]sulfonyl]-N-hydroxy-1-(2-propynyl)-4-piperidinecarboxamide] | >100 | > 100 |  | 
6 | Cl.O=C(NO)C1(S(=O)(=O)c2ccc(Sc3ccc(F)cc3)cc2)CCN(C2CC2)CC1 [Example 27, 1-cyclopropyl-4-[[4-[(4-fluorophenyl)thio]phenyl]sulfonyl]-N-hydroxy-4-piperidinecarboxamide] | 100 | > 100 |  | 
7 | COCCN1CCC(C(=O)NO)(S(=O)(=O)c2ccc(Sc3ccccc3)cc2)CC1.Cl [Example 35, N-hydroxy-1-(2-methoxyethyl)-4-[[4-(phenylthio)phenyl]-sulfonyl]-4-piperidinecarboxamide, monohydrochloride] | >100 | > 100 |  | 
8 | O=C(NO)C1(S(=O)(=O)c2ccc(Oc3ccc(OC(F)(F)F)cc3)cc2)CCOCC1 [Example 69] | 100 | > 100 |  | Blood Level @ 3 min (rat, in vivo, 20 mg/kg): 44000 ng/mL; BA (rat, in vivo, po, 20 mg/kg): 35.9%; Blood Level @ 6 hr (rat, in vivo, po, 20 mg/kg): 1172 ng/mL
9 | Cc1cc(Oc2ccc(S(=O)(=O)C3(C(=O)NO)CCNCC3)cc2)ccc1Cl.Cl [Example 79, 4-[[4-(4-chloro-3-methylphenoxy)phenyl]sulfonyl]-N-hydroxy-4-piperidinecarboxamide, monohydrochloride] |  |  | 1.82 | IC50 (recombinant human MMP-13): 0.0017 µM; IC50 (recombinant human MMP-1): > 10 µM; IC50 (recombinant human MMP-2): 0.001 µM; AUC (0-∞) (Rat Intraveneous, 20 mpk): 6110 ng·h/mL; Blood Level @ 3 min (Rat Intraveneous, 20 mpk, 3 min): 13990 ng/mL; AUC (0-6 hr) (Rat Oral, 20 mpk): 70 ng·h/mL; BA (Rat Oral, 20 mpk): 1.1%; Cmax (Rat Oral, 20 mpk): 20 ng/mL; Blood Level @ 6 hr (Rat Oral, 20 mpk, 6 hr): 10 ng/mL
10 | O=C(NO)C1(S(=O)(=O)c2ccc(Sc3ccccc3)cc2)CCOCC1 [Example 95, Tetrahydro-N-hydroxy-4-[[4-(phenylthio)phenyl]sulfonyl]-2H-pyran-4-carboxamide] | >100 | > 100 | 1.06 | 
11 | O=C(NO)C1(S(=O)(=O)c2ccc(Oc3ccc(C(F)(F)F)cc3)cc2)CCOCC1 [Example 379] | 80 | > 100 | 1.74 | 
12 | Cl.O=C(NO)C1(S(=O)(=O)c2ccc(Oc3ccc4c(c3)OCCO4)cc2)CCN(C2CC2)CC1 [Example 408, 1-cyclopropyl-4-[[4-[(2,3-dihydro-1,4-benzodioxin-6-yl)oxy]phenyl]-sulfonyl]-N-hydroxy-4-piperidine-carboxamide, monohydrochloride] |  |  | 3.30 | 
13 | Cl.O=C(NO)C1(S(=O)(=O)c2ccc(Oc3ccc(OC(F)(F)F)cc3)cc2)CCNCC1 [Example 410, N-hydroxy-4-[[4-[(trifluoromethoxy)phenoxy]phenyl]sulfonyl]-4-piperidinecarboxamide, monohydrochloride] |  |  | 1.78 | 
14 | C#CCN1CCC(C(=O)NO)(S(=O)(=O)c2ccc(Oc3ccc(C(C)C)cc3)cc2)CC1.Cl [Example 414, N-hydroxy-4-[[4-[4-(1-methylethyl)phenoxy]phenyl]sulfonyl]-1-(2-propynyl)-4-piperidinecarboxamide, monohdyrochloride] |  |  | 0.73 | 
15 | COCCN1CCC(C(=O)NO)(S(=O)(=O)c2ccc(Oc3ccc(OC(F)(F)F)cc3)cc2)CC1.Cl [Example 416, N-hydroxy-1-(2-methoxyethyl)-4-[[4-[4-(trifluoro-methoxy)phenoxy]phenyl]sulfonyl}-4-piperidinecarboxamide, monohydrochloride] |  |  | 2.94 | 
16 | COCCN1CCC(C(=O)NO)(S(=O)(=O)c2ccc(Oc3ccc(C(F)(F)F)cc3)cc2)CC1.Cl [Example 418, N-hydroxy-1-(2-methoxyethyl)-4-[[4-[4-(trifluoromethyl)-phenoxy]phenyl]sulfonyl}-4-piperidinecarboxamide, monohydrochloride] |  |  | 2.42 | 
17 | Cl.O=C(NO)C1(S(=O)(=O)c2ccc(Oc3ccc4c(c3)OCO4)cc2)CCN(C2CC2)CC1 [Example 421, 4-[[4-(1,3-benzodioxol-5-yloxy)phenyl]sulfonyl]-1-cyclopropyl-N-hydroxy-4-piperidinecarboxamide, monohydrochloride] |  |  |  | Blood Level @ 6 hr (rat, in vivo, po, 20 mg/kg): 206 ng/mL
18 | Cl.O=C(NO)C1(S(=O)(=O)c2ccc(Oc3ccc(C(F)(F)F)cc3)cc2)CCN(C2CC2)CC1 [Example 427, 1-cyclopropyl-N-hydroxy-4-[[4-[4-(trifluoromethyl)phenoxy]phenyl]sulfonyl]-4-piperidinecarboxamide, monohydrochloride] |  |  | 2.85 | 
19 | CCN1CCC(C(=O)NO)(S(=O)(=O)c2ccc(OCc3ccc(C(F)(F)F)cc3)cc2)CC1.Cl [Example 438, 1-ethyl-N-hydroxy-4-[(4-[[4-[trifluoromethyl)phenyl]methoxy]-phenyl]sulfonyl]-4-piperidine-carboxamide, monohydrochloride] |  |  | 2.14 | 
